One data set addresses GSK 3α (Homo sapiens (Human), UniProt P49840). Nature of the data set: GSK 3α enzyme inhibition (Method 2), Z-LYTE FRET. The data set is classed as biochemical. As to conditions: read-out: IC50 Values for Enzyme Inhibition GSK3α. How it is done:
The enzyme inhibitory activities of compounds disclosed herein are determined by FRET using synthetic peptides labelled with both donor and acceptor fluorophores (Z-LYTE, Invitrogen Ltd., Paisley, UK).
The following two assay variants can be used for determination of GSK 3α inhibition.
The inhibitory activities of compounds of the invention against the GSK 3α enzyme isoform (Invitrogen), are evaluated by determining the level of activation/phosphorylation of the target peptide. The GSK3-α protein (500 ng/mL, 2.5 μL) is mixed with the test compound (2.5 μL at either 4 μg/mL, 0.4 μg/mL, 0.04 μg/mL, or 0.004 μg/mL) for 2 hr at RT. The FRET peptide (8 μM, 2.5 μL), which is a phosphorylation target for GSK3α, and ATP (40 μM, 2.5 μL) are then added to the enzyme/compound mixture and the resulting mixture incubated for 1 hr. Development reagent (protease, 5 μL) is added for 1 hr prior to detection in a fluorescence microplate reader (Varioskan® Flash, ThermoFisher Scientific).
In all cases, the site-specific protease cleaves non-phosphorylated peptide only and eliminates the FRET signal. Phosphorylation levels of each reaction are calculated using the ratio of coumarin emission (donor) over fluorescein emission (acceptor), for which high ratios indicate high phosphorylation and low ratios indicate low phosphorylation levels.
This method follows the same steps as Method 1 above, but utilises a shorter period of mixing of the test compound (105 minutes instead of 2 hours) with the GSK3-α protein. In addition, the concentrations of test compound employed are either 10 μg/mL, 1 μg/mL, 0.1 μg/mL, or 0.01 μg/mL

Data set [1] in a line: Solubility in fasted-state simulated colonic fluid (FaSSCoF) at pH 6.5. The class given is physicochemical. As to conditions: 25 °C, pH 6.5, fassgf or other biorelevant, thermodynamic from solid. The procedure, abridged:
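Compounds were suspended at up to 2-10 mg/mL in pH 6.5 Tris/maleate FaSSCoF containing a five-bile-acid mixture, phosphatidylcholine, palmitic acid and BSA. After 24 h equilibration at 25° C the suspension was filtered and the filtrate quantified by HPLC peak area against a standard.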

In another data set the test system is Jurkat cells. Description: Cell cytotoxicity assay (r). The class given is cell-based, human. As to conditions: 24 hours. How it is done:
1×10^5 Jurkat cells (immortalised human T lymphocytes) are added to the appropriate number of wells of a 96 well plate in 100 μL of media (RPMI supplemented with 10% foetal bovine serum). 1 μL of DMSO control (final concentration 1.0% v/v) or test compound (final concentration 20, 5 or 1 μg/mL) is added to the wells and incubated at 37° C., 5% CO2. After 24 hours, the plate is centrifuged at 1200 rpm for 3 minutes and the supernatant discarded. Cells are then resuspended in 150 μL (final concentration 7.5 μg/mL) of propidium iodide (PI) in PBS and incubated at 37° C., 5% CO2 for 15 minutes. After 15 minutes, cells are analysed by flow cytometry (BD accuri) using the FL3 window. The % viability is calculated as the % of cells that are PI negative in the test wells normalised to the DMSO control.

[2] abbreviates: pH 6.5 FaSSCoF Solubility (mg/mL) Run 1.
[3] abbreviates: pH 6.5 FaSSCoF Solubility (mg/mL) Run 2.

≈ marks a conversion by molar mass, not a printed value. Some results are limits rather than exact numbers.

For orientation: IC50 means the concentration at which inhibition is half-maximal. Usually solubility (thermodynamic) stands for the concentration in solution at equilibrium with solid.

Chain of GSK 3α (P49840 whole entry): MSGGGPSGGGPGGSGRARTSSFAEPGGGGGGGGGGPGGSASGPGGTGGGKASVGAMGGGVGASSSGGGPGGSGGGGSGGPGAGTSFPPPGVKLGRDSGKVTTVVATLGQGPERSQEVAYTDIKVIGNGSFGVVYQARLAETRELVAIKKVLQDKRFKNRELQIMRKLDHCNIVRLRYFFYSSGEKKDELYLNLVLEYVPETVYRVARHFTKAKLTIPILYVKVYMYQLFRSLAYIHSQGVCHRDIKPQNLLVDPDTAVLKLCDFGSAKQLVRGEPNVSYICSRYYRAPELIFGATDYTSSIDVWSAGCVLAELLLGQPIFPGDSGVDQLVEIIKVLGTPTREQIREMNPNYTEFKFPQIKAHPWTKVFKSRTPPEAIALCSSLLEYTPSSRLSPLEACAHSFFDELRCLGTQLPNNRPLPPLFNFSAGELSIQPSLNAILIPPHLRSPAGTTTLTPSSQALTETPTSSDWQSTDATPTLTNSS

Take `COc1cc(Nc2cc(Oc3ccc(NC(=O)Nc4cc(C(C)(C)C)cc(NS(C)(=O)=O)c4OC)c4ccccc34)ccn2)ccc1C(=O)NCCCN1CCN(C)CC1` [17(aa), 4-[[4-[[4-[[5-tert-butyl-3-(methanesulfonamido)-2-methoxy-phenyl]carbamoylamino]-1-naphthyl]oxy]-2-pyridyl]amino]-2-methoxy-N-[3-(4-methylpiperazin-1-yl)propyl]benzamide]: the IC50 on GSK 3α is 2.93 µM.

Take `COc1cc(Nc2cc(Oc3ccc(NC(=O)Nc4cc(C(C)(C)C)cc(NS(C)(=O)=O)c4OC)c4ccccc34)ccn2)ccc1C(=O)N(C)CCN1CCOCC1` [17(ab), 4-[[4-[[4-[[5-tert-butyl-3-(methanesulfonamido)-2-methoxy-phenyl]carbamoylamino]-1-naphthyl]oxy]-2-pyridyl]amino]-2-methoxy-N-methyl-N-(2-morpholinoethyl)benzamide]: the IC50 on GSK 3α was found to be 0.596 µM.

As for `COc1cc(Nc2cc(Oc3ccc(NC(=O)Nc4cc(C(C)(C)C)cc(NS(C)(=O)=O)c4OC)c4ccccc34)ccn2)ccc1C(=O)NCCN(C)CCO` [17(ac), 4-[[4-[[4-[[5-tert-butyl-3-(methanesulfonamido)-2-methoxy-phenyl]carbamoylamino]-1-naphthyl]oxy]-2-pyridyl]amino]-N-[2-[2-hydroxyethyl(methyl)amino]ethyl]-2-methoxy-benzamide], the IC50 on GSK 3α turned out to be 3.02 µM.

Consider `COc1cc(Nc2cc(Oc3ccc(NC(=O)Nc4cc(C(C)(C)C)cc(NS(C)(=O)=O)c4OC)c4ccccc34)ccn2)ccc1C(=O)NCCN1CCCOCC1` [17(ai), 4-[[4-[[4-[[5-tert-butyl-3-(methanesulfonamido)-2-methoxy-phenyl]carbamoylamino]-1-naphthyl]oxy]-2-pyridyl]amino]-2-methoxy-N-[2-(1,4-oxazepan-4-yl)ethyl]benzamide], for which, on GSK 3α, the IC50 worked out at 4.48 µM.

For `COc1cc(Nc2cc(Oc3ccc(NC(=O)Nc4cc(C(C)(C)C)cc(NS(C)(=O)=O)c4OC)c4ccccc34)ccn2)ccc1C(=O)NCCCN1CCCOCC1` [17(aj), 4-[[4-[[4-[[5-tert-butyl-3-(methanesulfonamido)-2-methoxy-phenyl]carbamoylamino]-1-naphthyl]oxy]-2-pyridyl]amino]-2-methoxy-N-[3-(1,4-oxazepan-4-yl)propyl]benzamide], at GSK 3α, the IC50 is 2.64 µM.

Take `COc1cc(Nc2cc(Oc3ccc(NC(=O)Nc4cc(C(C)(C)C)cc(NS(C)(=O)=O)c4OC)c4ccccc34)ccn2)ccc1C(=O)NCCN1CCC(F)(F)CC1` [17(al), 4-[[4-[[4-[[5-tert-butyl-3-(methanesulfonamido)-2-methoxy-phenyl]carbamoylamino]-1-naphthyl]oxy]-2-pyridyl]amino]-N-[2-(4,4-difluoro-1-piperidyl)ethyl]-2-methoxy-benzamide]: the IC50 on GSK 3α came to 11.8 µM.

Take `COc1cc(Nc2cc(Oc3ccc(NC(=O)Nc4cc(C(C)(C)C)cc(NS(C)(=O)=O)c4OC)c4ccccc34)ccn2)ccc1C(=O)NCCN1C[C@@H](C)O[C@@H](C)C1` [17(c), 4-[[4-[[4-[[5-tert-butyl-3-(methanesulfonamido)-2-methoxy-phenyl]carbamoylamino]-1-naphthyl]oxy]-2-pyridyl]amino]-N-[2-[(2S,6R)yl]ethyl]-2-methoxy-benzamide]: the IC50 on GSK 3α was over 11.9 µM.

For `COc1cc(Nc2cc(Oc3ccc(NC(=O)Nc4cc(C(C)(C)C)cc(NS(C)(=O)=O)c4OC)c4ccccc34)ccn2)ccc1C(=O)NC(CO)(CO)CO` [17(cm), 4-((4-((4-(3-(5-(tert-Butyl)-2-methoxy-3-(methylsulfonamido)phenyl)ureido)naphthalen-1-yl)oxy)pyridin-2-yl)amino)-N-(1,3-dihydroxy-2-(hydroxymethyl)propan-2-yl)-2-methoxybenzamide], the results for the solubility (thermodynamic) at 24 h in data set [1] (setting [2]) and in data set [1] (setting [3]) were 8 µg/mL (≈ 9.96 µM) and 9 µg/mL (≈ 11.2 µM), respectively. In addition, in the data set with Jurkat cells (5 μg/mL), the “% Viability at 5 μg/mL” value worked out at 77.0%.

With `COc1cc(Nc2cc(Oc3ccc(NC(=O)Nc4cc(C(C)(C)C)cc(NS(C)(=O)=O)c4OC)c4ccccc34)ccn2)ccc1-c1nn[nH]n1` [Example 24, N-(5-(tert-Butyl)-2-methoxy-3-(3-(4-((2-((3-methoxy-4-(2H-tetrazol-5-yl)phenyl)amino)pyridin-4-yl)oxy)naphthalen-1-yl)ureido)phenyl)methanesulfonamide], the solubility (thermodynamic) at 24 h in data set [1] (setting [2]) was 12 µg/mL (≈ 16.6 µM); in data set [1] (setting [3]), 10 µg/mL (≈ 13.8 µM). Further, the “% Viability at 20 μg/mL” value in the data set with Jurkat cells turned out to be 9.7%.

On to `COc1cc(Nc2nccc(Oc3ccc(NC(=O)Nc4cc(C(C)(C)C)cc(NS(C)(=O)=O)c4OC)c4ccccc34)n2)ccc1S(N)(=O)=O` [Example 28, 4-((4-((4-(3-(5-(tert-Butyl)-2-methoxy-3-(methylsulfonamido)phenyl)ureido)naphthalen-1-yl)oxy)pyrimidin-2-yl)amino)-2-methoxybenzenesulfonamide], for which the thermodynamic solubility at 24 h in data set [1] (setting [2]) and in data set [1] (setting [3]) was under 1 µg/mL in each case. In addition, the “% Viability at 1 μg/mL” value in the data set on Jurkat cells is on record as 100.0%.

Turning to `COc1c(NC(=O)Nc2ccc(Oc3ccnc(Nc4ccc(C(=O)NCCCN5CCOCC5)c(O)c4)c3)c3ccccc23)cc(C(C)(C)C)cc1NS(C)(=O)=O` [Example 29, 4-((4-((4-(3-(5-(tert-Butyl)-2-methoxy-3-(methylsulfonamido)phenyl)ureido)naphthalen-1-yl)oxy)pyridin-2-yl)amino)-2-hydroxy-N-(3-morpholinopropyl)benzamide], the solubility (thermodynamic) at 24 h in data set [1] (setting [2]) was 11 µg/mL (≈ 13.5 µM); in data set [1] (setting [3]), 9 µg/mL (≈ 11.1 µM). Further, the “% Viability at 20 μg/mL” value in the data set with Jurkat cells is listed as 2.0%.

As for `COc1cc(Nc2cc(Oc3ccc(NC(=O)Nc4cc(C(C)(C)C)cc(NS(C)(=O)=O)c4OC)c4ccccc34)ccn2)ccc1-n1ccccc1=O` [Example 31, N-(5-(tert-Butyl)-2-methoxy-3-(3-(4-((2-((3-methoxy-4-(2-oxopyridin-1(2H)-yl)phenyl)amino)-pyridin-4-yl)oxy)naphthalen-1-yl)ureido)phenyl)methanesulfonamide], the solubility (thermodynamic) at 24 h in data set [1] (setting [2]) and in data set [1] (setting [3]) was 3 µg/mL (≈ 4.01 µM) in each case. The “% Viability at 20 μg/mL” value in the data set on Jurkat cells was 99.0%.

In the case of `COc1cc(Nc2cc(Oc3ccc(NC(=O)Nc4cc(C(C)(C)C)cc(NS(C)(=O)=O)c4OC)c4ccccc34)ccn2)ccc1C(=O)NCC(CO)(CO)CO` [Example 38, 4-((4-((4-(3-(5-(tert-Butyl)-2-methoxy-3-(methylsulfonamido)phenyl)ureido)naphthalen-1-yl)oxy)pyridin-2-yl)amino)-N-(3-hydroxy-2,2-bis(hydroxymethyl)propyl)-2-methoxybenzamide], in data set [1] (setting [2]), the solubility (thermodynamic) at 24 h was 14 µg/mL (≈ 17.1 µM). The same molecule registered a thermodynamic solubility at 24 h in data set [1] (setting [3]) of 12 µg/mL (≈ 14.7 µM). In the data set on Jurkat cells, the “% Viability at 1 μg/mL” value stood at 90.0% and the “% Viability at 20 μg/mL” value is given as 6.0%.

`COc1cc(Nc2cc(Oc3ccc(NC(=O)Nc4cc(C(C)(C)C)cc(NS(C)(=O)=O)c4OC)c4ccccc34)ccn2)cc(OC)c1C(=O)NCCN(C)C` [Example 39, 4-((4-((4-(3-(5-(tert-Butyl)-2-methoxy-3-(methylsulfonamido)phenyl)ureido)naphthalen-1-yl)oxy)pyridin-2-yl)amino)-N-(2-(dimethylamino)ethyl)-2,6-dimethoxybenzamide]: the thermodynamic solubility at 24 h in data set [1] (setting [2]) was 222 µg/mL (≈ 278 µM); in data set [1] (setting [3]), 247 µg/mL (≈ 309 µM); in data set [1] (pH 6.5 FaSSCoF Solubility (mg/mL) Run 3) it was 73 µg/mL (≈ 91.3 µM); in data set [1] (pH 6.5 FaSSCoF Solubility (mg/mL) Run 4) it was 97 µg/mL (≈ 121 µM). Further, the “% Viability at 20 μg/mL” value in the data set with Jurkat cells is given as 1.5%.

Regarding `COc1cc(Nc2cc(Oc3ccc(NC(=O)Nc4cc(C(C)(C)C)cc(NS(C)(=O)=O)c4OC)c4ccccc34)ccn2)ccc1S(=O)(=O)CC(CO)(CO)CO` [Example 45, N-(5-(tert-Butyl)-3-(3-(4-((2-((4-((3-hydroxy-2,2-bis(hydroxymethyl)propyl)sulfonyl)-3-methoxyphenyl)amino)pyridin-4-yl)oxy)naphthalen-1-yl)ureido)-2-methoxyphenyl)-methanesulfonamide], the thermodynamic solubility at 24 h in data set [1] (setting [2]) and in data set [1] (setting [3]) was 5 µg/mL (≈ 5.97 µM) throughout. The “% Viability at 20 μg/mL” value in the data set with Jurkat cells came to 9.8%.
